Results as given in ChEMBL document CHEMBL1201862, “PubChem BioAssay data set” (2004).
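Briefly, cells in 96-well plates were exposed to five compound concentrations for 48 h, and endpoints were estimated by linear interpolation. GI50 = concentration required for 50% inhibition of growth.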 Active and inactive are the calls of the source. Rule as the data show it: active = GI50 up to about 1.1 µM and inactive = higher.

Experiments:
Assay in all cases: growth of human tumour cells (NCI), 48 h
A549 = system: A549
COLO 205 = system: COLO 205
EKVX = system: EKVX
HCC 2998 = system: HCC 2998
HCT-116 = system: HCT-116
HL-60 = system: HL-60
HOP-62 = system: HOP-62
M14 = system: M14
MOLT-4 = system: MOLT-4
OVCAR-3 = system: OVCAR-3
OVCAR-5 = system: OVCAR-5
RPMI-8226 = system: RPMI-8226
SF-268 = system: SF-268
SK-MEL-2 = system: SK-MEL-2
SK-MEL-5 = system: SK-MEL-5
SN12C = system: SN12C
UACC-257 = system: UACC-257
UO-31 = system: UO-31
RXF 393 = system: RXF 393
SK-MEL-28 = system: SK-MEL-28

Measured: GI50

COC(=O)[C@]1(C)CCC[C@@]2(C)C1CCC1=CC3(C(C)C)CCC12OO3 (stereo not given in full)
inactive: A549 44 µM | COLO 205 > 100 µM | EKVX 90.6 µM | HCC 2998 88.5 µM | HCT-116 42 µM | HL-60 15.9 µM | HOP-62 > 100 µM | M14 74 µM | MOLT-4 20 µM | OVCAR-3 > 100 µM | OVCAR-5 > 100 µM | RPMI-8226 43.1 µM | SF-268 > 100 µM | SK-MEL-2 46.9 µM | SK-MEL-5 31.1 µM | SN12C 43.2 µM | UACC-257 31.5 µM | UO-31 41 µM

O=C(CC1C(=O)Nc2ccccc2[S+]1[O-])Nc1ccccc1 (stereo not given)
inactive: A549 > 100 µM | COLO 205 > 100 µM | EKVX > 100 µM | HCC 2998 > 100 µM | HCT-116 > 100 µM | HL-60 > 100 µM | HOP-62 > 100 µM | M14 > 100 µM | MOLT-4 > 100 µM | OVCAR-3 > 100 µM | OVCAR-5 > 100 µM | RXF 393 19.8 µM | SF-268 > 100 µM | SK-MEL-28 > 100 µM | SK-MEL-2 > 100 µM | SK-MEL-5 > 100 µM | SN12C > 100 µM | UACC-257 > 100 µM | UO-31 37.5 µM

O=C1C2C3CC(C4C5C=CC(C5)C34)C2C2C3CC(C12)C1C2C=CC(C2)C31 (stereo not given)
inactive: A549 > 100 µM | COLO 205 > 100 µM | EKVX > 100 µM | HCC 2998 > 100 µM | HCT-116 > 100 µM | HL-60 75.2 µM | HOP-62 > 100 µM | M14 > 100 µM | MOLT-4 > 100 µM | OVCAR-3 > 100 µM | OVCAR-5 > 100 µM | RXF 393 > 100 µM | SF-268 90.8 µM | SK-MEL-28 > 100 µM | SK-MEL-2 > 100 µM | SK-MEL-5 > 100 µM | SN12C > 100 µM | UACC-257 > 100 µM | UO-31 > 100 µM

Sc1ncnc2c1ncn2Cc1ccco1
inactive: A549 > 100 µM | COLO 205 > 100 µM | EKVX > 100 µM | HCC 2998 > 100 µM | HCT-116 > 100 µM | HOP-62 > 100 µM | M14 > 100 µM | MOLT-4 > 100 µM | OVCAR-3 > 100 µM | OVCAR-5 > 100 µM | RPMI-8226 > 100 µM | RXF 393 > 100 µM | SF-268 > 100 µM | SK-MEL-28 > 100 µM | SK-MEL-2 > 100 µM | SK-MEL-5 > 100 µM | SN12C > 100 µM | UACC-257 > 100 µM | UO-31 > 100 µM

CC(=O)/C(=C/NC(=S)Nc1ccc(Cl)c(Cl)c1)C(=O)Nc1ccccc1C
inactive: A549 34.1 µM | COLO 205 28.2 µM | EKVX 21.5 µM | HCC 2998 32.3 µM | HCT-116 33.7 µM | HL-60 17.1 µM | HOP-62 33.4 µM | M14 37 µM | MOLT-4 16 µM | OVCAR-3 24.3 µM | OVCAR-5 32 µM | RXF 393 29.4 µM | SF-268 34.5 µM | SK-MEL-28 44.7 µM | SK-MEL-2 28 µM | SK-MEL-5 19.2 µM | SN12C 35.7 µM | UACC-257 31.7 µM | UO-31 22.3 µM

Oc1cc(-c2ccccn2)nc2cc(F)ccc12
inactive: A549 46 µM | COLO 205 74.6 µM | EKVX 42.9 µM | HCC 2998 > 100 µM | HCT-116 43.3 µM | HL-60 > 100 µM | HOP-62 > 100 µM | M14 81.1 µM | MOLT-4 > 100 µM | OVCAR-3 > 100 µM | OVCAR-5 > 100 µM | RPMI-8226 92.3 µM | RXF 393 > 100 µM | SK-MEL-28 > 100 µM | SK-MEL-5 45.1 µM | SN12C > 100 µM | UACC-257 > 100 µM | UO-31 > 100 µM

COc1cc(OC)cc(Oc2nc3ccc(C(F)(F)F)cc3nc2-c2ccccc2)c1
inactive: A549 > 100 µM | COLO 205 > 100 µM | EKVX > 100 µM | HCC 2998 > 100 µM | HCT-116 > 100 µM | HL-60 > 100 µM | HOP-62 > 100 µM | MOLT-4 > 100 µM | OVCAR-3 > 100 µM | OVCAR-5 > 100 µM | RPMI-8226 52.5 µM | RXF 393 > 100 µM | SF-268 > 100 µM | SK-MEL-28 > 100 µM | SK-MEL-5 > 100 µM | UACC-257 > 100 µM | UO-31 > 100 µM

C/C(Cl)=N\OC(=O)Nc1ccc(C)cc1
inactive: A549 18.2 µM | COLO 205 16.2 µM | EKVX 18.3 µM | HCC 2998 16.9 µM | HCT-116 19.1 µM | HL-60 2.22 µM | HOP-62 46.9 µM | M14 17.2 µM | MOLT-4 > 10 µM | OVCAR-3 18 µM | OVCAR-5 18.5 µM | RPMI-8226 > 10 µM | SF-268 15.8 µM | SK-MEL-28 14.5 µM | SK-MEL-2 18.2 µM | SK-MEL-5 17.7 µM | SN12C 15.7 µM | UACC-257 18.7 µM | UO-31 17.4 µM

O=C(c1ccccc1)c1cccc(C(=O)c2ccccc2)c1
inactive: A549 > 100 µM | COLO 205 > 100 µM | EKVX > 100 µM | HCC 2998 > 100 µM | HCT-116 > 100 µM | HOP-62 > 100 µM | M14 > 100 µM | MOLT-4 67.9 µM | OVCAR-3 > 100 µM | RPMI-8226 > 100 µM | RXF 393 76.4 µM | SF-268 > 100 µM | SK-MEL-28 > 100 µM | SK-MEL-2 > 100 µM | SK-MEL-5 78.9 µM | SN12C > 100 µM | UACC-257 > 100 µM | UO-31 37.2 µM

CCOP(C)(=O)C(Cc1c[nH]c2ccccc12)C(=O)O (stereo not given)
inactive: A549 > 100 µM | COLO 205 > 100 µM | EKVX > 100 µM | HCC 2998 > 100 µM | HCT-116 > 100 µM | HL-60 > 100 µM | HOP-62 > 100 µM | M14 > 100 µM | MOLT-4 > 100 µM | OVCAR-3 > 100 µM | OVCAR-5 > 100 µM | RPMI-8226 > 100 µM | SF-268 > 100 µM | SK-MEL-28 > 100 µM | SK-MEL-2 > 100 µM | SK-MEL-5 > 100 µM | SN12C > 100 µM | UO-31 > 100 µM

N#C/C(=C1/c2cc([N+](=O)[O-])ccc2-c2c1cc([N+](=O)[O-])cc2[N+](=O)[O-])N1CCCCC1
inactive: A549 > 100 µM | COLO 205 > 100 µM | EKVX > 100 µM | HCC 2998 > 100 µM | HCT-116 27.3 µM | HOP-62 32.4 µM | M14 86.9 µM | MOLT-4 > 100 µM | OVCAR-3 > 100 µM | OVCAR-5 > 100 µM | RPMI-8226 17 µM | RXF 393 34.6 µM | SF-268 > 100 µM | SK-MEL-28 > 100 µM | SK-MEL-2 > 100 µM | SK-MEL-5 91.4 µM | SN12C > 100 µM | UACC-257 > 100 µM | UO-31 > 100 µM

Cc1ccc(Oc2ccc(C(=O)c3cccc(C(=O)c4ccc(Oc5ccc(C)cc5)cc4)n3)cc2)cc1
inactive: A549 > 100 µM | COLO 205 > 100 µM | EKVX > 100 µM | HCC 2998 > 100 µM | HCT-116 > 100 µM | HL-60 > 100 µM | HOP-62 > 100 µM | M14 > 100 µM | MOLT-4 > 100 µM | OVCAR-3 > 100 µM | OVCAR-5 > 100 µM | RXF 393 > 100 µM | SF-268 > 100 µM | SK-MEL-28 > 100 µM | SK-MEL-2 > 100 µM | SK-MEL-5 > 100 µM | SN12C > 100 µM | UACC-257 > 100 µM | UO-31 > 100 µM

CCOC(=O)c1c(-c2ccc(OC)cc2)c(C#N)c(=S)n(C2OC(COC(C)=O)C(OC(C)=O)C(OC(C)=O)C2OC(C)=O)c1C (stereo not given)
inactive: A549 > 100 µM | COLO 205 > 100 µM | EKVX 78.2 µM | HCC 2998 > 100 µM | HCT-116 > 100 µM | HL-60 75.7 µM | HOP-62 > 100 µM | M14 > 100 µM | MOLT-4 61.1 µM | OVCAR-3 31.5 µM | OVCAR-5 > 100 µM | RXF 393 > 100 µM | SF-268 > 100 µM | SK-MEL-28 > 100 µM | SK-MEL-5 > 100 µM | SN12C > 100 µM | UACC-257 > 100 µM | UO-31 1.46 µM

O=C(Cc1nc2ccccc2s1)C(=O)Nc1cccc(C(F)(F)F)c1
inactive: A549 > 100 µM | COLO 205 > 100 µM | EKVX > 100 µM | HCC 2998 > 100 µM | HCT-116 > 100 µM | HL-60 > 100 µM | HOP-62 > 100 µM | M14 > 100 µM | MOLT-4 > 100 µM | OVCAR-3 > 100 µM | RXF 393 > 100 µM | SF-268 > 100 µM | SK-MEL-28 > 100 µM | SK-MEL-2 > 100 µM | SK-MEL-5 > 100 µM | SN12C > 100 µM | UACC-257 > 100 µM | UO-31 > 100 µM

CCOC(=O)CCc1c(C)c2c(OC)cc(OC)cc2oc1=O
inactive: A549 > 100 µM | COLO 205 > 100 µM | EKVX 54.7 µM | HCC 2998 > 100 µM | HCT-116 > 100 µM | HL-60 88.3 µM | HOP-62 > 100 µM | M14 > 100 µM | OVCAR-3 > 100 µM | OVCAR-5 59.3 µM | RXF 393 33.9 µM | SF-268 34.4 µM | SK-MEL-28 > 100 µM | SK-MEL-2 > 100 µM | SN12C 79.4 µM | UACC-257 > 100 µM | UO-31 65.9 µM
